{
  "source": "patent US4684629A",
  "about": "“3'-deamino-3'-hydroxy-4'-deoxy-4'-amino doxorubicin and related daunorubicin” (priority 1985, dated 1987)",
  "key": {"HeLa cells": {"test_system": "HeLa cells", "assay": "colony inhibition test against HeLa cells (treatment for 24 hrs)", "assay_type": "cell-based", "details": "Homo sapiens"}, "P388 leukemia": {"test_system": "P388 leukemia", "assay": "antitumor activity against P388 ascitic leukemia in CDF-1 mice, treatment ip on day 1", "assay_type": "in vivo", "details": "for T/C % (median survival time: % over untreated controls) / Toxic deaths: ip on day 1; for Toxic deaths: autoptic findings on dead mice; for antitumor activity compared with the parent drugs: P 388 ascitic leukemia, CDF-1 mice, in words", "procedure": "The primary screening \"in vivo\" was carried out in CDF-1 mice bearing P 388 ascitic leukemia (10^6 cells/mouse).\nAntitumor activity against P388 leukemia, treatment ip on day 1\n^a Median survival time: % over untreated controls\n^b Evaluated on the basis of autoptic findings on dead mice."}, "[1]": {"test_system": "miocardial tissue (atrium, ventricle)", "assay": "cardiotoxicity in C3H/He mice bearing mammary carcinoma, semithin sections of miocardial tissue (light microscopy)", "assay_type": "in vivo", "details": "for animals with cardiac lesions (atrial and ventricular level) / severity of the cardiac lesions: mouse, in vivo", "procedure": "(§1) The compound IB has been tested in comparison with Doxorubicin against advanced mammary carcinoma spontaneously arising in C3H/He mice. The compounds were administered iv once a week for four weeks.\n(§2) ^1 Experiment was performed in C3H/He mice inoculated s.c. with 20\n(§3) × 10^6 mammary carcinoma cells.\n(§4) ^2 Treatment iv started when tumor was palpable (once week for four\n^6 Evaluated on semithin section of miocardial tissue (by light"}, "[2]": {"test_system": "advanced mammary carcinoma", "assay": "activity and toxicity against advanced mammary carcinoma in C3H/He mice, iv once a week for four weeks", "assay_type": "in vivo", "details": "for Toxic deaths: autoptic evaluation; for Tumor growth: evaluated once week after last treatment; for activity at the optimal dose: 6 mg/kg of Doxorubicin, 5.3 mg/kg of IB, in words", "procedure": "as §1\nActivity, toxicity and cardiotoxicity of IB against advanced mammary\nas §2, §3, §4\n^3 Evaluated once week after last treatment.\n^5 Evaluated on the basis of autoptic"}, "[3]": {"details": "6 mg/kg iv once a week for four weeks"}, "[4]": {"details": "7.5 mg/kg iv once a week for four weeks"}, "[5]": {"details": "2.7 mg/kg iv once a week for four weeks"}, "[6]": {"details": "3.8 mg/kg iv once a week for four weeks"}, "[7]": {"details": "5.3 mg/kg iv once a week for four weeks"}},
  "note": "Read-outs that look alike come from different tables or passages of the source.",
  "data": [
    {"smiles": "COc1cccc2c1C(=O)c1c(O)c3c(c(O)c1C2=O)C[C@@](O)(C(C)=O)C[C@@H]3O[C@H]1C[C@H](N)[C@H](O)[C@H](C)O1", "note": "[Daunorubicin]", "values": [
      {"measurement": "IC50", "setting": "HeLa cells; HeLa, 24 h, read-out: ID50", "value": 9, "unit": "ng/mL"},
      {"measurement": "T/C % (median survival time: % over untreated controls)", "setting": "P388 leukemia; dose 2.9 (ng/kg [sic])", "value": 170, "unit": "%"},
      {"measurement": "Toxic deaths", "setting": "P388 leukemia; dose 2.9 (ng/kg [sic])", "value": "0/10"},
      {"measurement": "T/C % (median survival time: % over untreated controls)", "setting": "P388 leukemia; dose 4.4 (ng/kg [sic])", "value": 170, "unit": "%"},
      {"measurement": "Toxic deaths", "setting": "P388 leukemia; dose 4.4 (ng/kg [sic])", "value": "0/10"},
      {"measurement": "T/C % (median survival time: % over untreated controls)", "setting": "P388 leukemia; dose 6.6 (ng/kg [sic])", "value": 170, "unit": "%"},
      {"measurement": "Toxic deaths", "setting": "P388 leukemia; dose 6.6 (ng/kg [sic])", "value": "3/10"}
    ]},
    {"smiles": "COc1cccc2c1C(=O)c1c(O)c3c(c(O)c1C2=O)C[C@@](O)(C(=O)CO)C[C@@H]3O[C@H]1C[C@H](N)[C@H](O)[C@H](C)O1", "note": "[Doxorubicin]", "values": [
      {"measurement": "Cardiotoxicity, Atrium, affected mice (%)", "setting": "[1]; [3]", "value": 100, "unit": "%"},
      {"measurement": "Cardiotoxicity, Atrium, grade", "setting": "[1]; [3]", "value": 1.6},
      {"measurement": "Cardiotoxicity, Ventricle, affected mice (%)", "setting": "[1]; [3]", "value": 100, "unit": "%"},
      {"measurement": "Cardiotoxicity, Ventricle, grade", "setting": "[1]; [3]", "value": 1.2},
      {"measurement": "Cardiotoxicity, Atrium, affected mice (%)", "setting": "[1]; [4]", "value": 100, "unit": "%"},
      {"measurement": "Cardiotoxicity, Atrium, grade", "setting": "[1]; [4]", "value": 3.2},
      {"measurement": "Cardiotoxicity, Ventricle, affected mice (%)", "setting": "[1]; [4]", "value": 100, "unit": "%"},
      {"measurement": "Cardiotoxicity, Ventricle, grade", "setting": "[1]; [4]", "value": 3.6},
      {"measurement": "animals with cardiac lesions (atrial and ventricular level)", "setting": "[1]", "value": "all the animals"},
      {"measurement": "severity of the cardiac lesions", "setting": "[1]", "value": "high"},
      {"measurement": "T/C % (median survival time: % over untreated controls)", "setting": "P388 leukemia; dose 10.0 (ng/kg [sic])", "value": 225, "unit": "%"},
      {"measurement": "Toxic deaths", "setting": "P388 leukemia; dose 10.0 (ng/kg [sic])", "value": "0/10"},
      {"measurement": "T/C %", "setting": "[2]; [3]", "value": 138, "unit": "%"},
      {"measurement": "Toxic deaths", "setting": "[2]; [3]", "value": "0/5"},
      {"measurement": "Tumor growth", "setting": "[2]; [3]", "value": 65},
      {"measurement": "activity at the optimal dose", "setting": "[2]", "value": "the same for both compounds"},
      {"measurement": "T/C %", "setting": "[2]; [4]", "value": 125, "unit": "%"},
      {"measurement": "Toxic deaths", "setting": "[2]; [4]", "value": "5/5"},
      {"measurement": "Tumor growth", "setting": "[2]; [4]", "value": 84}
    ]},
    {"smiles": "COc1cccc2c1C(=O)c1c(O)c3c(c(O)c1C2=O)CC(O)(C(C)=O)CC3OC1CC(O)C(N)C(C)O1", "note": "(centres unmarked) [IA, 3'-deamino-3'-hydroxy-4'-deoxy-4'-aminodaunorubicin]", "values": [
      {"measurement": "IC50", "setting": "HeLa cells; HeLa cells, treatment for 24 hrs, read-out: ID50 (the source's name)", "value": 7, "unit": "ng/mL"},
      {"measurement": "antitumor activity compared with the parent drugs", "setting": "P388 leukemia", "value": "more active than the parent drugs"},
      {"measurement": "T/C % (median survival time: % over untreated controls)", "setting": "P388 leukemia; dose 10.0 (ng/kg [sic])", "value": 165, "unit": "%"},
      {"measurement": "Toxic deaths", "setting": "P388 leukemia; dose 10.0 (ng/kg [sic])", "value": "0/10"},
      {"measurement": "T/C % (median survival time: % over untreated controls)", "setting": "P388 leukemia; dose 15.0 (ng/kg [sic])", "value": 180, "unit": "%"},
      {"measurement": "Toxic deaths", "setting": "P388 leukemia; dose 15.0 (ng/kg [sic])", "value": "0/10"},
      {"measurement": "T/C % (median survival time: % over untreated controls)", "setting": "P388 leukemia; dose 22.5 (ng/kg [sic])", "value": 200, "unit": "%"},
      {"measurement": "Toxic deaths", "setting": "P388 leukemia; dose 22.5 (ng/kg [sic])", "value": "0/10"}
    ]},
    {"smiles": "COc1cccc2c1C(=O)c1c(O)c3c(c(O)c1C2=O)CC(O)(C(=O)CO)CC3OC1CC(O)C(N)C(C)O1", "note": "(centres unmarked) [IB, 3'-deamino-3'-hydroxy-4'-deoxy-4'-aminodoxorubicin]", "values": [
      {"measurement": "Cardiotoxicity, Atrium, affected mice (%)", "setting": "[1]; [5]", "value": 25, "unit": "%"},
      {"measurement": "Cardiotoxicity, Atrium, grade", "setting": "[1]; [5]", "value": 0.1},
      {"measurement": "Cardiotoxicity, Ventricle, affected mice (%)", "setting": "[1]; [5]", "value": 0, "unit": "%"},
      {"measurement": "Cardiotoxicity, Ventricle, grade", "setting": "[1]; [5]", "value": 0},
      {"measurement": "Cardiotoxicity, Atrium, affected mice (%)", "setting": "[1]; [6]", "value": 20, "unit": "%"},
      {"measurement": "Cardiotoxicity, Atrium, grade", "setting": "[1]; [6]", "value": 0.1},
      {"measurement": "Cardiotoxicity, Ventricle, affected mice (%)", "setting": "[1]; [6]", "value": 60, "unit": "%"},
      {"measurement": "Cardiotoxicity, Ventricle, grade", "setting": "[1]; [6]", "value": 0.3},
      {"measurement": "Cardiotoxicity, Atrium, affected mice (%)", "setting": "[1]; [7]", "value": 40, "unit": "%"},
      {"measurement": "Cardiotoxicity, Atrium, grade", "setting": "[1]; [7]", "value": 0.2},
      {"measurement": "Cardiotoxicity, Ventricle, affected mice (%)", "setting": "[1]; [7]", "value": 80, "unit": "%"},
      {"measurement": "Cardiotoxicity, Ventricle, grade", "setting": "[1]; [7]", "value": 0.4},
      {"measurement": "cardiotoxicity in comparison with Doxorubicin", "setting": "[1]; in words", "value": "drastically reduced in comparison with Doxorubicin"},
      {"measurement": "animals with cardiac lesions (atrial and ventricular level)", "setting": "[1]", "value": "lower percent of affected mice"},
      {"measurement": "severity of the cardiac lesions", "setting": "[1]", "value": "lower severity"},
      {"measurement": "antitumor activity compared with the parent drugs", "setting": "P388 leukemia", "value": "more active than the parent drugs"},
      {"measurement": "T/C % (median survival time: % over untreated controls)", "setting": "P388 leukemia; dose 4.4 (ng/kg [sic])", "value": 220, "unit": "%"},
      {"measurement": "Toxic deaths", "setting": "P388 leukemia; dose 4.4 (ng/kg [sic])", "value": "0/10"},
      {"measurement": "T/C % (median survival time: % over untreated controls)", "setting": "P388 leukemia; dose 6.6 (ng/kg [sic])", "value": 230, "unit": "%"},
      {"measurement": "Toxic deaths", "setting": "P388 leukemia; dose 6.6 (ng/kg [sic])", "value": "0/10"},
      {"measurement": "T/C % (median survival time: % over untreated controls)", "setting": "P388 leukemia; dose 10.0 (ng/kg [sic])", "value": 310, "unit": "%"},
      {"measurement": "Toxic deaths", "setting": "P388 leukemia; dose 10.0 (ng/kg [sic])", "value": "0/10"},
      {"measurement": "T/C % (median survival time: % over untreated controls)", "setting": "P388 leukemia; dose 15.0 (ng/kg [sic])", "value": 215, "unit": "%"},
      {"measurement": "Toxic deaths", "setting": "P388 leukemia; dose 15.0 (ng/kg [sic])", "value": "3/10"},
      {"measurement": "T/C %", "setting": "[2]; [5]", "value": 98, "unit": "%"},
      {"measurement": "Toxic deaths", "setting": "[2]; [5]", "value": "0/5"},
      {"measurement": "Tumor growth", "setting": "[2]; [5]", "value": 32},
      {"measurement": "T/C %", "setting": "[2]; [6]", "value": 129, "unit": "%"},
      {"measurement": "Toxic deaths", "setting": "[2]; [6]", "value": "0/5"},
      {"measurement": "Tumor growth", "setting": "[2]; [6]", "value": 34},
      {"measurement": "T/C %", "setting": "[2]; [7]", "value": 148, "unit": "%"},
      {"measurement": "Toxic deaths", "setting": "[2]; [7]", "value": "1/5"},
      {"measurement": "Tumor growth", "setting": "[2]; [7]", "value": 59},
      {"measurement": "activity at the optimal dose", "setting": "[2]", "value": "the same for both compounds"}
    ]}
  ]
}
